The record followed here is patent publication US20230295152A1 (SENDA BIOSCIENCES, INC., priority 2019, published 2023).

The data set can be described thus: Caco-2 Permeability Assay. The format is in vitro ADME. As to conditions: human. As to the method: Preparation of Caco-2 Cells: 50 μL and 25 mL of cell culture medium were added to each well of the Transwell insert and reservoir, respectively. The HTS transwell plates were incubated at 37° C., 5% CO2 for 1 hour before cell seeding. Caco-2 cells were diluted to 6.86×10^5 cells/mL with culture medium and 50 μL of cell suspension were dispensed into the filter well of the 96-well HTS Transwell plate. Cells were cultivated for 14-18 days in a cell culture incubator at 37° C., 5% CO2, 95% relative humidity. Cell culture medium was replaced every other day, beginning no later than 24 hours after initial plating.
Assessment of Cell Monolayer Integrity: Medium was removed from the reservoir and each Transwell insert and replaced with prewarmed fresh culture medium. Transepithelial electrical resistance (TEER) across the monolayer was measured using Millicell Epithelial Volt-Ohm measuring system (Millipore, USA). The Plate was returned to the incubator once the measurement was done. The TEER value was calculated according to the following equation:
TEER measurement(ohms)×Area of membrane(cm^2)=TEER value(ohm·cm^2)
TEER value should be greater than 230 ohm·cm^2, which indicates the well-qualified Caco-2 monolayer.
Preparation of Solutions: 2 mM stock solutions in DMSO of control compounds were prepared and diluted with HBSS (10 mM HEPES, pH 7.4) to get 10 μM working solution. 0.2 mM stock solutions of test compounds in DMSO were prepared and diluted with HBSS (10 mM HEPES, pH 7.4 with 0.5% BSA) to get 1 μM working solution. Metoprolol, erythromycin and cimetidine were used as control compounds.
Performing the Drug Transport Assay: The Caco-2 plate was removed from the incubator. The monolayer was washed twice with pre-warmed HBSS (10 mM HEPES, pH 7.4). The plate was incubated at 37° C. for 30 minutes. To determine the rate of drug transport in the apical to basolateral direction, 125 μL of the working solution was added to the Transwell insert (apical compartment). A 50 μL sample was transferred immediately from the apical compartment to 200 μL of acetonitrile containing IS (100 nM alprazolam, 200 nM Caffeine and 100 nM tolbutamide) in a new 96-well plate as the initial donor sample (A-B) and it was vortexed at 1000 rpm for 10 minutes. The wells in the receiver plate (basolateral compartment) were filled with 235 μL of transport buffer. To determine the rate of drug transport in the basolateral to apical direction, 285 μL of the working solution were added to the receiver plate wells (basolateral compartment). A 50 μL sample was transferred immediately from the basolateral compartment to 200 μL of acetonitrile containing IS (100 nM alprazolam, 200 nM Caffeine and 100 nM tolbutamide) in a new 96-well plate as the initial donor sample (B-A) and it was vortexed at 1000 rpm for 10 minutes. The Transwell insert (apical compartment) was filled with 75 μL of transport buffer. The apical to basolateral direction and the basolateral to apical direction need to be done at the same time. The plates were incubated at 37° C. for 2 hours. At the end of the incubation, 50 μL samples from donor sides (apical compartment for Ap→B1 flux, and basolateral compartment for B1→Ap) and receiver sides (basolateral compartment for Ap→B1 flux, and apical compartment for B1→Ap) were transferred to wells of a new 96-well plate, followed by the addition of 4 volume of acetonitrile containing IS (100 nM alprazolam, 200 nM Caffeine and 100 nM tolbutamide). Samples were vortexed for 10 minutes, 50 μL samples were transferred to wells of a new 96-well plate, followed by the addition of 50 μL Hepes and 200 μL IS. A11 samples were vortexed for 10 minutes, and then centrifuged at 3,220 g for 40 minutes. An aliquot of 150 μL of the supernatant was mixed with an appropriate volume of ultra-pure water before LC-MS/MS analysis.
Data analysis: All calculations were carried out using Microsoft Excel. Peak areas were determined from extracted ion chromatograms. […]
A general note: Passage across Caco-2 layers is used to estimate intestinal permeability.

Setting [1] is: Caco-2, pH 7.4, apical to basolateral, read-out: Caco2 Papp (AB).
[2] abbreviates: Caco-2, pH 7.4, basolateral to apical, read-out: Caco2 Papp (BA).
The mark [3] stands for this setting: Caco-2, pH 7.4, +0.5% BSA, read-out: Caco 2 apparent permeability Papp (A−B).
Setting [4] is: Caco-2, pH 7.4, +0.5% BSA, read-out: Caco 2 apparent permeability Papp (B−A).

Where two headings read alike, the source gives them in different places.

For `C[C@@H](CO)n1cnc2c(-c3cncc(F)c3)nc(-c3ccc(OC(F)(F)F)cc3)cc2c1=O` [Compound 1, (S)-8-(5-fluoropyridin-3-yl)-3-(1-hydroxypropan-2-yl)-6-(4-(trifluoromethoxy)phenyl)pyrido[3,4-d]pyrimidin-4(3H)-one], the Papp A→B at 2 h, 1 μM under setting [1] is 2 to 10 ×10⁻⁶ cm/s. In addition, under setting [2], the Papp B→A at 2 h, 1 μM was under 2 ×10⁻⁶ cm/s.
For `C[C@@H](CO)n1cnc2c(-c3cccc(F)c3)nc(-c3ccc(Cl)cc3)cc2c1=O` [Compound 7], in that order: under 2 ×10⁻⁶ cm/s and under 2 ×10⁻⁶ cm/s.
For `C[C@@H](CO)n1cnc2c(-c3cccc(F)c3)nc(-c3ccc(C(F)(F)F)nc3)cc2c1=O` [Compound 8], in that order: 2 to 10 ×10⁻⁶ cm/s and 2 to 10 ×10⁻⁶ cm/s.
`CC(C)(O)Cn1cnc2c(-c3cccnc3)nc(-c3ccc(C(F)(F)F)nc3)cc2c1=O` [Compound 9]: the Papp A→B at 2 h, 1 μM by setting is: under setting [3], 9.6 ×10⁻⁶ cm/s; under setting [1], 2 to 10 ×10⁻⁶ cm/s. The Papp B→A at 2 h, 1 μM was 25 ×10⁻⁶ cm/s under setting [4] and over 10 ×10⁻⁶ cm/s under setting [2].
For `C[C@@H](CO)n1cnc2c(-c3cccnc3)nc(-c3ccc(C(F)(F)F)nc3)cc2c1=O` [Compound 12], under setting [1], the Papp A→B at 2 h, 1 μM is 2 to 10 ×10⁻⁶ cm/s. For the same molecule, under setting [2], the Papp B→A at 2 h, 1 μM is over 10 ×10⁻⁶ cm/s.
For `CC(C)(O)Cn1cnc2c(-c3cccnc3)nc(-c3ccc(C(F)(F)F)cc3)cc2c1=O` [Compound 16], in that order: 2 to 10 ×10⁻⁶ cm/s and 2 to 10 ×10⁻⁶ cm/s.
Taken in the same sequence, the figures for `Cc1ccc(-c2cc3c(=O)n([C@@H](C)CO)cnc3c(-c3cccnc3)n2)cc1` [Compound 17, (S)-3-(1-hydroxypropan-2-yl)-8-(pyridin-3-yl)-6-(p-tolyl)pyrido[3,4-d]pyrimidin-4(3H)-one] were over 10 ×10⁻⁶ cm/s and 2 to 10 ×10⁻⁶ cm/s.
Taken in the same sequence, the figures for `CC(C)(O)Cn1cnc2c(-c3cccnc3)nc(-c3ccc(Cl)cc3)cc2c1=O` [Compound 18] were 2 to 10 ×10⁻⁶ cm/s and 2 to 10 ×10⁻⁶ cm/s.
Regarding `Cn1cc(-c2nc(-c3ccc(Cl)cc3)cc3c(=O)n(CC(C)(C)O)cnc23)cn1` [Compound 21], the Papp A→B at 2 h, 1 μM under setting [1] fell in the range of 2 to 10 ×10⁻⁶ cm/s. Further, the Papp B→A at 2 h, 1 μM under setting [2] was under 2 ×10⁻⁶ cm/s.
As for `C[C@@H](CO)n1cnc2c(-c3cccnc3)nc(-c3ccc(OC(F)(F)F)cc3)cc2c1=O` [Compound 22], the Papp A→B at 2 h, 1 μM under setting [1] is 2 to 10 ×10⁻⁶ cm/s. Under setting [2], the Papp B→A at 2 h, 1 μM lay within 2 to 10 ×10⁻⁶ cm/s.
As for `C[C@@H](CO)n1cnc2c(-c3cnn(C)c3)nc(-c3ccc(Cl)cc3)cc2c1=O` [Compound 27], the Papp A→B at 2 h, 1 μM under setting [1] is 2 to 10 ×10⁻⁶ cm/s. The Papp B→A at 2 h, 1 μM under setting [2] is under 2 ×10⁻⁶ cm/s.
Taken in the same sequence, the figures for `C[C@H](n1cnc2c(-c3cnn(C)c3)nc(-c3ccc(Cl)cc3)cc2c1=O)C(C)(C)O` [Compound 30] were 2 to 10 ×10⁻⁶ cm/s and under 2 ×10⁻⁶ cm/s.
With `C[C@@H](n1cnc2c(-c3cnn(C)c3)nc(-c3ccc(Cl)cc3)cc2c1=O)C(C)(C)O` [Compound 31], the Papp A→B at 2 h, 1 μM under setting [1] was 2 to 10 ×10⁻⁶ cm/s. The Papp B→A at 2 h, 1 μM under setting [2] is under 2 ×10⁻⁶ cm/s.
Taken in the same sequence, the figures for `C[C@@H](n1cnc2c(-c3cccnc3)nc(-c3ccc(Cl)cc3)cc2c1=O)C(C)(C)O` [Compound 33] were 2 to 10 ×10⁻⁶ cm/s and 2 to 10 ×10⁻⁶ cm/s.
Taken in the same sequence, the figures for `C[C@H](n1cnc2c(-c3cccnc3)nc(-c3cccnc3)cc2c1=O)C(C)(C)O` [Compound 34] were 2 to 10 ×10⁻⁶ cm/s and over 10 ×10⁻⁶ cm/s.
For `C[C@@H](CO)n1cnc2c(-n3ccnc3)nc(-c3ccc(OC(F)(F)F)cc3)cc2c1=O` [Compound 44, (S)-3-(1-hydroxypropan-2-yl)-8-(1H-imidazol-1-yl)-6-(4-(trifluoromethoxy)-phenyl)pyrido[3,4-d]pyrimidin-4(3H)-one], in that order: 2 to 10 ×10⁻⁶ cm/s and 2 to 10 ×10⁻⁶ cm/s.
`C[C@@H](CO)n1cnc2c(-c3cccnc3)nc(-c3ccc(C(F)(F)F)cn3)cc2c1=O` [Compound 46, (S)-3-(1-hydroxypropan-2-yl)-8-(pyridin-3-yl)-6-(5-(trifluoromethyl)pyridin-2-yl)pyrido[3,4-d]pyrimidin-4(3H)-one]: the Papp A→B at 2 h, 1 μM by setting is: under setting [3], 12.6 ×10⁻⁶ cm/s; under setting [1], over 10 ×10⁻⁶ cm/s. The Papp B→A at 2 h, 1 μM reads like this: under setting [4], 16.4 ×10⁻⁶ cm/s; under setting [2], over 10 ×10⁻⁶ cm/s.
As to `C[C@@H](CO)n1cnc2c(-c3cccc(F)c3)nc(-c3ccc(C(F)(F)F)cn3)cc2c1=O` [Compound 47, (S)-8-(3-fluorophenyl)-3-(1-hydroxypropan-2-yl)-6-(5-(trifluoromethyl)pyridin-2-yl)pyrido[3,4-d]pyrimidin-4(3H)-one], under setting [1], the Papp A→B at 2 h, 1 μM is under 2 ×10⁻⁶ cm/s. In addition, the Papp B→A at 2 h, 1 μM under setting [2] was under 2 ×10⁻⁶ cm/s.
`Cn1cc(-c2nc(-c3ccc(C(F)(F)F)nc3)cc3c(=O)n(CC(C)(C)O)cnc23)cn1` [Compound 60]: the Papp A→B at 2 h, 1 μM under setting [1] was over 10 ×10⁻⁶ cm/s. Also, the Papp B→A at 2 h, 1 μM under setting [2] is 2 to 10 ×10⁻⁶ cm/s.
Turning to `C[C@@H](CO)n1cnc2c(-c3cccnc3)nc(-c3ccc(C4CC4)nc3)cc2c1=O` [Compound 74], the Papp A→B at 2 h, 1 μM under setting [1] is 2 to 10 ×10⁻⁶ cm/s. Besides, under setting [2], the Papp B→A at 2 h, 1 μM was over 10 ×10⁻⁶ cm/s.
As for `Cn1cc(-c2nc(-c3ccc(C(F)(F)F)cn3)cc3c(=O)n(CC(C)(C)O)cnc23)cn1` [Compound 103, 3-(2-hydroxy-2-methylpropyl)-8-(1-methyl-1H-pyrazol-4-yl)-6-(5-(trifluoromethyl)pyridin-2-yl)pyrido[3,4-d]pyrimidin-4(3H)-one], the Papp A→B at 2 h, 1 μM under setting [1] is 2 to 10 ×10⁻⁶ cm/s. Further, the Papp B→A at 2 h, 1 μM under setting [2] is under 2 ×10⁻⁶ cm/s.
Turning to `CC(C)(O)Cn1cnc2c(-c3cccnc3)nc(-c3ccc(C(F)(F)F)cn3)cc2c1=O` [Compound 105], under setting [1], the Papp A→B at 2 h, 1 μM was over 10 ×10⁻⁶ cm/s. Besides, the Papp B→A at 2 h, 1 μM under setting [2] was in the range of 2 to 10 ×10⁻⁶ cm/s.
